Laboratory results reported in US20100305068A1, “COMPOUNDS AND METHODS FOR MODULATING PROTEIN TRAFFICKING” (priority 2006, published 2010).
Where two headings read alike, the source gives them in different places.

Tested on: pdr5 ypt1^ts cells
Assay: microbe, parasite or virus in culture
Type: cell-based, yeast
Settings: for minimal effective concentration / optical density, ypt1-ts, 0.39 / optical density, ypt1-ts, 0.78 / optical density, ypt1-ts, 1.56 / optical density, ypt1-ts, 3.13 / optical density, ypt1-ts, 6.25 / optical density, ypt1-ts, 12.5 / optical density, ypt1-ts, 25: Table 2; for minimal effective concentration: lowest concentration tested giving growth above the 0 μM background, read-out: ypt1-ts MRC (minimal rescue concentration); for optical density, ypt1-ts, 0.39: 0.39 μM compound; for optical density, ypt1-ts, 0.39 / optical density, ypt1-ts, 0.78 / optical density, ypt1-ts, 1.56 / optical density, ypt1-ts, 3.13 / optical density, ypt1-ts, 6.25 / optical density, ypt1-ts, 12.5 / optical density, ypt1-ts, 25: background (0 μM) 0.058; for optical density, ypt1-ts, 0.78: 0.78 μM compound; for optical density, ypt1-ts, 1.56: 1.56 μM compound; for optical density, ypt1-ts, 3.13: 3.13 μM compound; for optical density, ypt1-ts, 6.25: 6.25 μM compound; for optical density, ypt1-ts, 12.5: 12.5 μM compound; for optical density, ypt1-ts, 25: 25 μM compound
How it was run: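 Whole-cell yeast growth-rescue screen: pdr5 ypt1^ts cells (efflux pump inactivated), growth-arrested at 37° C., cultured with compounds at 37° C. Restoration of growth read by optical density.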

[1] = Table 3, 3.13 uM compound, 37° C., background (0 uM) 0.077
[2] = Table 3, 12.5 uM compound, 37° C., background (0 uM) 0.077
[3] = Table 3, 50 uM compound, 37° C., background (0 uM) 0.077
[4] = Saccharomyces cerevisiae, 37° C.

CC(CCC(=O)O)[C@H]1CCC2C3C(CC[C@@]21C)[C@@]1(C)CC[C@@H](O)C[C@H]1C[C@@H]3O (some centres unmarked) [URSODIOL, reference compound]
optical density, 3.13 uM [1]: 0.202
optical density, 12.5 uM [2]: 0.41
optical density, 50 uM [3]: 0.523

O=c1c2ccccc2oc2ccccc12 [XANTHONE]
minimal effective concentration [4]: 6.25 µM
optical density, ypt1-ts, 0.39 (37° C.): 0.096
optical density, ypt1-ts, 0.78 (37° C.): 0.072
optical density, ypt1-ts, 1.56 (37° C.): 0.093
optical density, ypt1-ts, 3.13 (37° C.): 0.109
optical density, ypt1-ts, 6.25 (37° C.): 0.152
optical density, ypt1-ts, 12.5 (37° C.): 0.445
optical density, ypt1-ts, 25 (37° C.): 0.598

Nc1nc2ncc(=O)[nH]c2c(=O)[nH]1 [XANTHOP- TERIN]
optical density, 3.13 uM [1]: 0.101
optical density, 12.5 uM [2]: 0.23
optical density, 50 uM [3]: 0.073

C=C1C2CC[C@@]3(C)[C@H](c4ccoc4)OC(=O)C[C@]13O[C@H]1CC(=O)C(C)(C)C(CC(=O)OC)C21C (some centres unmarked) [[…], METHYL ESTER]
minimal effective concentration [4]: 3.13 µM
optical density, ypt1-ts, 0.39 (37° C.): 0.119
optical density, ypt1-ts, 0.78 (37° C.): 0.087
optical density, ypt1-ts, 1.56 (37° C.): 0.107
optical density, ypt1-ts, 3.13 (37° C.): 0.21
optical density, ypt1-ts, 6.25 (37° C.): 0.53
optical density, ypt1-ts, 12.5 (37° C.): 0.56
optical density, ypt1-ts, 25 (37° C.): 0.577

AKLAVINE HYDROCHLORIDE
optical density, ypt1-ts, 0.39 (37° C.): 0.095
optical density, ypt1-ts, 0.78 (37° C.): 0.136
optical density, ypt1-ts, 1.56 (37° C.): 0.078
optical density, ypt1-ts, 3.13 (37° C.): 0.088
optical density, ypt1-ts, 6.25 (37° C.): 0.101
optical density, ypt1-ts, 12.5 (37° C.): 0.145
optical density, ypt1-ts, 25 (37° C.): 0.246
minimal effective concentration (37° C.): 12.5 µM

AVOCATIN A
optical density, 3.13 uM [1]: 0.351
optical density, 12.5 uM [2]: 0.06
optical density, 50 uM [3]: 0.036

AVOCATIN B
optical density, 3.13 uM [1]: 0.451
optical density, 12.5 uM [2]: 0.032
optical density, 50 uM [3]: 0.032

CHLORO- PHYLLIDE Cu COMPLEX Na SALT
optical density, 3.13 uM [1]: 0.064
optical density, 12.5 uM [2]: 0.054
optical density, 50 uM [3]: 0.305

DACTINOMYCIN [reference compound]
optical density, ypt1-ts, 0.39 (37° C.): 0.093
optical density, ypt1-ts, 0.78 (37° C.): 0.071
optical density, ypt1-ts, 1.56 (37° C.): 0.082
optical density, ypt1-ts, 3.13 (37° C.): 0.104
optical density, ypt1-ts, 6.25 (37° C.): 0.351
optical density, ypt1-ts, 12.5 (37° C.): 0.663
optical density, ypt1-ts, 25 (37° C.): 0.669
minimal effective concentration (37° C.): 6.25 µM

FUSIDIC ACID [reference compound]
optical density, ypt1-ts, 0.39 (37° C.): 0.095
optical density, ypt1-ts, 0.78 (37° C.): 0.081
optical density, ypt1-ts, 1.56 (37° C.): 0.084
optical density, ypt1-ts, 3.13 (37° C.): 0.107
optical density, ypt1-ts, 6.25 (37° C.): 0.137
optical density, ypt1-ts, 12.5 (37° C.): 0.296
optical density, ypt1-ts, 25 (37° C.): 0.52
minimal effective concentration (37° C.): 6.25 µM

NIMESULIDE [reference compound]
optical density, 3.13 uM: 0.098
optical density, 12.5 uM: 0.147
optical density, 50 uM: 0.539

NIMODIPINE [reference compound]
optical density, ypt1-ts, 0.39 (37° C.): 0.097
optical density, ypt1-ts, 0.78 (37° C.): 0.081
optical density, ypt1-ts, 1.56 (37° C.): 0.096
optical density, ypt1-ts, 3.13 (37° C.): 0.113
optical density, ypt1-ts, 12.5 (37° C.): 0.178
optical density, ypt1-ts, 25 (37° C.): 0.27
minimal effective concentration (37° C.): 12.5 µM
